Laboratory results published in ChEMBL document CHEMBL1201862, “PubChem BioAssay data set” (2004).
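These data come from cells grown in 96-well plates and exposed to compound for 48 hours at five concentrations. At the GI50, growth is halved.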 Activity calls are given as the source filed them. No stated cut-off is given here; in the data, active = GI50 up to about 1.1 µM and inactive = higher.

How the values were obtained:
Assay in all cases: NCI anticancer screen, dose series, 48 h
786-0 = system: 786-0
K562 = system: K562
DMS-114 = system: DMS-114
SK-MEL-2 = system: SK-MEL-2
U-251 = system: U-251
OVCAR-8 = system: OVCAR-8
A549 = system: A549
NCI-H460 = system: NCI-H460
ACHN = system: ACHN
COLO 205 = system: COLO 205
HCT-15 = system: HCT-15
HCT-116 = system: HCT-116
RPMI-8226 = system: RPMI-8226
Malme-3M = system: Malme-3M
SW-620 = system: SW-620
PC-3 = system: PC-3
Hs-578T = system: Hs-578T
OVCAR-3 = system: OVCAR-3
MDA-MB-231 = system: MDA-MB-231
NCI/ADR-RES = system: NCI/ADR-RES

Measured: GI50

Oc1cc(-c2ccccc2)c2ccccc2n1
inactive: 786-0 > 100 µM | K562 65.5 µM | DMS-114 12.7 µM | SK-MEL-2 72.1 µM | U-251 69.5 µM | OVCAR-8 > 100 µM | A549 34.4 µM | NCI-H460 41.9 µM | ACHN 33.4 µM | COLO 205 > 100 µM | HCT-116 64.7 µM | RPMI-8226 67.6 µM | Malme-3M 24.9 µM | SW-620 > 100 µM
58.9 µM: HCT-15

CC(C)c1ccc2c(c1)CCC1C(C)(CN)CCCC21C (configuration not stated)
1.54 µM: HCT-15
inactive: 786-0 1.56 µM | SK-MEL-2 1.73 µM | PC-3 1.59 µM | Hs-578T 1.63 µM | U-251 1.38 µM | OVCAR-8 1.73 µM | A549 1.8 µM | OVCAR-3 1.7 µM | NCI-H460 1.22 µM | ACHN 1.74 µM | MDA-MB-231 1.42 µM | HCT-116 1.59 µM | Malme-3M 1.43 µM | NCI/ADR-RES 1.64 µM | SW-620 1.29 µM
active: K562 0.551 µM | COLO 205 0.575 µM | RPMI-8226 0.653 µM

Cc1ccc(C)c2sc3cc(=O)ccc-3nc12
inactive: 786-0 39.2 µM | K562 16 µM | DMS-114 30.5 µM | SK-MEL-2 53.3 µM | U-251 35.7 µM | OVCAR-8 35.2 µM | A549 41.2 µM | OVCAR-3 43.3 µM | NCI-H460 34.2 µM | ACHN 30 µM | COLO 205 63.8 µM | HCT-116 54.3 µM | SW-620 63.1 µM
29.4 µM: HCT-15

CCOC(=O)[C@H](CCCNC(=O)OC(C)(C)C)NCc1ccc(OC)c(OC)c1
inactive: 786-0 > 100 µM | K562 > 100 µM | DMS-114 > 100 µM | SK-MEL-2 > 100 µM | U-251 > 100 µM | OVCAR-8 > 100 µM | A549 > 100 µM | OVCAR-3 > 100 µM | ACHN > 100 µM | COLO 205 > 100 µM | HCT-116 > 100 µM | Malme-3M > 100 µM | SW-620 > 100 µM

CC1=C(C#N)C(=O)N(/N=C/c2ccc(Cl)cc2)C(=O)/C1=c1\o/c(=C2/C(=O)N(/N=C/c3ccc(Cl)cc3)C(=O)C(C#N)=C2C)c2nccnc12
inactive: 786-0 > 100 µM | K562 69.7 µM | SK-MEL-2 > 100 µM | PC-3 60.7 µM | Hs-578T 21.2 µM | U-251 > 100 µM | OVCAR-8 > 100 µM | A549 > 100 µM | OVCAR-3 > 100 µM | NCI-H460 > 100 µM | ACHN > 100 µM | COLO 205 > 100 µM | MDA-MB-231 > 100 µM | HCT-116 76.7 µM | RPMI-8226 60.7 µM | Malme-3M > 100 µM | NCI/ADR-RES > 100 µM | SW-620 > 100 µM
82 µM: HCT-15

CC(C)(C)OC(=O)NCC(c1c[nH]c2cc(Br)ccc12)c1c[nH]c2cc(Br)ccc12
inactive: 786-0 18.6 µM | K562 40.1 µM | SK-MEL-2 18.4 µM | PC-3 17.3 µM | Hs-578T 19.8 µM | U-251 17.3 µM | OVCAR-8 18.3 µM | A549 20.1 µM | OVCAR-3 15.7 µM | NCI-H460 21.2 µM | ACHN 16.7 µM | COLO 205 15.6 µM | MDA-MB-231 18 µM | HCT-116 17 µM | RPMI-8226 32.7 µM | Malme-3M 17.2 µM | NCI/ADR-RES 17.7 µM | SW-620 28.9 µM
15.1 µM: HCT-15

CN1CCN(Cc2nc3c(s2)CCc2sccc2-3)CC1
inactive: 786-0 95.3 µM | K562 89.3 µM | SK-MEL-2 > 100 µM | PC-3 63.8 µM | Hs-578T > 100 µM | U-251 > 100 µM | OVCAR-8 94.6 µM | A549 > 100 µM | OVCAR-3 > 100 µM | NCI-H460 > 100 µM | ACHN > 100 µM | COLO 205 > 100 µM | MDA-MB-231 52.2 µM | HCT-116 62.5 µM | RPMI-8226 > 100 µM | Malme-3M 89.3 µM | NCI/ADR-RES > 100 µM | SW-620 > 100 µM
> 100 µM: HCT-15

N#CC(NNC(=O)Cc1ccccc1)c1ccc(O)cc1 (configuration not stated)
> 100 µM: HCT-15
inactive: 786-0 > 100 µM | K562 > 100 µM | DMS-114 > 100 µM | SK-MEL-2 > 100 µM | U-251 > 100 µM | OVCAR-8 > 100 µM | A549 > 100 µM | NCI-H460 > 100 µM | ACHN > 100 µM | COLO 205 > 100 µM | HCT-116 > 100 µM | RPMI-8226 > 100 µM | Malme-3M > 100 µM | SW-620 > 100 µM

Cc1cc(Cl)nc2nc(Cl)c(N)cc12
inactive: 786-0 2.86 µM | K562 3.23 µM | SK-MEL-2 14.9 µM | PC-3 12.1 µM | Hs-578T 10.4 µM | U-251 2.05 µM | OVCAR-8 2.67 µM | A549 13.5 µM | OVCAR-3 1.87 µM | NCI-H460 2.38 µM | ACHN 5.38 µM | COLO 205 2.06 µM | MDA-MB-231 3.48 µM | HCT-116 2.48 µM | RPMI-8226 2.26 µM | Malme-3M 9.53 µM | NCI/ADR-RES 14.8 µM | SW-620 2.04 µM
1.9 µM: HCT-15

O=[N+]([O-])c1ccc(/C=N/C2CCCCC2)cc1
inactive: 786-0 > 100 µM | K562 > 100 µM | DMS-114 > 100 µM | SK-MEL-2 > 100 µM | U-251 > 100 µM | OVCAR-8 > 100 µM | A549 > 100 µM | OVCAR-3 > 100 µM | NCI-H460 > 100 µM | ACHN > 100 µM | COLO 205 > 100 µM | HCT-116 > 100 µM | Malme-3M > 100 µM | SW-620 > 100 µM
> 100 µM: HCT-15

CC1CNC(c2ccc(-c3nc(-c4ccc(C5=NC(C)CN5)cc4)nc(N(C)C)n3)cc2)=N1 (configuration not stated)
16.6 µM: HCT-15
inactive: 786-0 1.28 µM | K562 1.41 µM | SK-MEL-2 2.01 µM | PC-3 1.57 µM | Hs-578T 3.21 µM | OVCAR-8 2.12 µM | A549 3.02 µM | OVCAR-3 1.79 µM | NCI-H460 3.27 µM | ACHN 3.01 µM | MDA-MB-231 1.31 µM | RPMI-8226 3.78 µM | Malme-3M 3.08 µM | NCI/ADR-RES 22 µM | SW-620 1.17 µM
active: U-251 0.991 µM | COLO 205 1.1 µM | HCT-116 0.964 µM

O=C(NC1C=Nc2ccccc2NC1=O)c1ccccc1Cl (configuration not stated)
inactive: 786-0 56 µM | K562 11.1 µM | DMS-114 16.1 µM | SK-MEL-2 36.9 µM | U-251 28.8 µM | OVCAR-8 43 µM | A549 48 µM | OVCAR-3 28.4 µM | NCI-H460 44 µM | ACHN 39.6 µM | COLO 205 22.7 µM | HCT-116 39.1 µM | Malme-3M 58.1 µM | SW-620 13.6 µM
33.7 µM: HCT-15

C[Si](C)(C)C(CCCCSc1ccccc1)(Sc1ccccc1)Sc1ccccc1
> 100 µM: HCT-15
inactive: 786-0 > 100 µM | K562 > 100 µM | DMS-114 > 100 µM | SK-MEL-2 > 100 µM | U-251 85.5 µM | OVCAR-8 > 100 µM | A549 > 100 µM | NCI-H460 > 100 µM | ACHN > 100 µM | COLO 205 > 100 µM | HCT-116 > 100 µM | RPMI-8226 > 100 µM | SW-620 > 100 µM

CC(C)(C)c1ccc(OC2CCO2)cc1 (configuration not stated)
inactive: 786-0 28.7 µM | K562 17.3 µM | DMS-114 39.5 µM | U-251 18.7 µM | OVCAR-8 38.6 µM | A549 61.2 µM | OVCAR-3 34.5 µM | NCI-H460 24.3 µM | ACHN 34.5 µM | COLO 205 29.4 µM | HCT-116 21 µM | RPMI-8226 22.1 µM | Malme-3M 67 µM | SW-620 17.1 µM
20 µM: HCT-15

COC(=O)C1C=CCC2CCCCC21N1CCCC1 (configuration not stated)
inactive: 786-0 > 100 µM | DMS-114 36.1 µM | U-251 40.4 µM | OVCAR-8 59.4 µM | A549 71.8 µM | OVCAR-3 49.4 µM | NCI-H460 55.2 µM | ACHN > 100 µM | COLO 205 40.9 µM | HCT-116 46.1 µM | RPMI-8226 42.7 µM | Malme-3M > 100 µM | SW-620 83.6 µM
> 100 µM: HCT-15

CCCCC(=O)c1c(O)ccc2c(C)cc(=O)oc12
inactive: 786-0 > 100 µM | K562 > 100 µM | SK-MEL-2 3.14 µM | PC-3 > 100 µM | Hs-578T 29 µM | U-251 > 100 µM | OVCAR-8 > 100 µM | A549 73.3 µM | OVCAR-3 > 100 µM | NCI-H460 53.1 µM | ACHN 96.6 µM | COLO 205 > 100 µM | MDA-MB-231 67.8 µM | HCT-116 > 100 µM | RPMI-8226 52 µM | Malme-3M 39.9 µM | NCI/ADR-RES 55.7 µM | SW-620 > 100 µM
50.4 µM: HCT-15

Cc1nc2c(O)cc3c4c(n(Cc5ccccc5)c3c2nc1C)C(=O)CCC4
> 100 µM: HCT-15
inactive: 786-0 15.1 µM | K562 93.5 µM | SK-MEL-2 10.1 µM | PC-3 49.7 µM | Hs-578T 14.4 µM | U-251 12 µM | OVCAR-8 12.2 µM | A549 50.5 µM | OVCAR-3 28.2 µM | NCI-H460 83 µM | ACHN 25.2 µM | COLO 205 83 µM | MDA-MB-231 > 100 µM | HCT-116 34.4 µM | RPMI-8226 > 100 µM | Malme-3M 27.8 µM | NCI/ADR-RES 32.1 µM | SW-620 > 100 µM
